Laboratory results from patent publication US8535950B2, “Use of perfluoropolymer submicrometric latexes in the determination of molecular interactions by laser light scattering (LLS)” (Solvay Solexis S.p.A., priority 2005, dated 2013).
Counter-ions that a name gives are not always drawn.

System: peptide sequence L-Lys-D-Ala-D-Ala
Assay: Binding constant by laser light scattering (LLS) on perfluoropolymer latex particles coated with receptor-ended surfactant
Text: More specifically the use comprises the following steps: • a) addition to a colloidal aqueous suspension or latex of particles having an average diameter between 5 and 200 nm, preferably between 40 and 80 nm, formed of a perfluorinated, semicrystalline or amorphous polymer, of a sequence of known volumes of an aqueous solution of a mixture containing from 50% to 99.5% by weight of an amphiphylic non ionic surfactant and from 0.5 to 50% by weight of a surfactant ended with a receptor, measuring after each addition the intensity of the scattered light by the suspension by Laser Scattering Light (LLS) and reporting it on a diagram in function of the progressively added solution volume, until reaching an asymptotic value (Ir); • b) addition to the suspension obtained in step a) of a sequence of known volumes of a ligand aqueous solution, measuring after each addition the intensity of the scattered light by the suspension by Laser Scattering Light (LLS) its reporting on a diagram in function of the progressively added solution volume (expressed as molar concentration [T0]), until reaching an asymptotic value and fitting the scattered light intensity data (I) in function of the ligand additions ([T0]) with formula (1) to obtain the receptor-ligand binding constant (K), wherein formula (1) is: […]

In the case of CN[C@H](CC(C)C)C(=O)N[C@H]1C(=O)N[C@@H](CC(N)=O)C(=O)N[C@H]2C(=O)N[C@H]3C(=O)N[C@H](C(=O)N[C@H](C(=O)O)c4cc(O)cc(O)c4-c4cc3ccc4O)[C@H](O)c3ccc(c(Cl)c3)Oc3cc2cc(c3O[C@@H]2O[C@H](CO)[C@@H](O)[C@H](O)[C@H]2O[C@H]2C[C@](C)(N)[C@H](O)[C@H](C)O2)Oc2ccc(cc2Cl)[C@H]1O [Vancomycin, Vancomycin hydrochloride hydrate], the receptor-ligand binding constant (Example 1: 0.1% latex, 78 nm particles of TFE copolymer with 40% by moles perfluoromethylvinylether, 0.4 millimole Vancomycin solution in 6 microlitre portions, Langmuir fit) is reported as 1.5e+06 mol⁻¹ and the receptor-ligand binding constant (Example 2: 0.1% latex, 40 nm particles of TFE copolymer with 30% by moles TTD, 0.9 millimolar Vancomycin in 6 microlitre portions) is reported as 1.1e+06 mol⁻¹.
